Earlier results in patent US10190039B2, “Synthetic acid compositions alternatives to conventional acids in the oil and gas industry” (priority 2014, dated 2019).

Conditions: death in 2-3 minutes

Question: With `Cl` [hydrogen chloride gas, hydrogen chloride] as the molecule, how does the “Level at which death can occur” value read?
Answer: Its value is 1300-2000 ppm.
